# US20190161451A1, “HERBICIDAL PYRIMIDINE COMPOUNDS” (BASF SE, priority 2016, published 2019)
# Assays:
# [1] = tested on: AMARE; test: greenhouse experiment, post-emergence treatment; assay type: in vivo, Amaranthus retroflexus; details: post-emergence method, scale from 0 to 100
# Text: (§1) The culture containers used were plastic flowerpots containing loamy sand with approximately 3.0% of humus as the substrate. The seeds of the test plants were sown separately for each species.
# (§2) For the post-emergence treatment, the test plants were first grown to a height of 3 to 15 cm, depending on the plant habit, and only then treated with the active ingredients which had been suspended or emulsified in water. For this purpose, the test plants were either sown directly and grown in the same containers, or they were first grown separately as seedlings and transplanted into the test containers a few days prior to treatment.
# (§3) Depending on the species, the plants were kept at 10-25° C. or 20-35° C., respectively.
# (§4) The test period extended over 2 to 4 weeks. During this time, the plants were tended, and their response to the individual treatments was evaluated.
# (§5) Evaluation was carried out using a scale from 0 to 100. 100 means no emergence of the plants, or complete destruction of at least the aerial moieties, and 0 means no damage, or normal course of growth. A good herbicidal activity is given at values of at least 70 and a very good herbicidal activity is given at values of at least 85.
# (§6) The plants used in the greenhouse experiments were of the following species: […]
# [2] = tested on: ECHCG; test: greenhouse experiment, pre-emergence treatment; assay type: in vivo, Echinocloa crus-galli; details: pre-emergence method, scale from 0 to 100
# Text: as §1
# (§7) For the pre-emergence treatment, the active ingredients, which had been suspended or emulsified in water, were applied directly after sowing by means of finely distributing nozzles.
# (§8) The containers were irrigated gently to promote germination and growth and subsequently covered with transparent plastic hoods until the plants had rooted. This cover caused uniform germination of the test plants, unless this had been impaired by the active ingredients.
# as §3, §4, §5, §6
# [3] = tested on: APESV; test: greenhouse experiment, pre-emergence treatment; assay type: in vivo, Apera spica-venti; details: pre-emergence method, scale from 0 to 100
# Text: as §1, §7, §8, §3, §4, §5, §6
# [4] = tested on: ALOMY; test: greenhouse experiment, post-emergence treatment; assay type: in vivo, Alopecurus myosuroides; details: post-emergence method, scale from 0 to 100
# Text: as §1, §2, §3, §4, §5, §6
# [5] = tested on: ECHCG; test: greenhouse experiment, post-emergence treatment; assay type: in vivo, Echinocloa crus-galli; details: post-emergence method, scale from 0 to 100
# Text: as §1, §2, §3, §4, §5, §6
# [6] = tested on: AMARE; test: greenhouse experiment, pre-emergence treatment; assay type: in vivo, Amaranthus retroflexus; details: pre-emergence method, application rate 1000 g/ha, scale from 0 to 100
# Text: as §1, §7, §8, §3, §4, §5, §6
# [7] = tested on: SETVI; test: greenhouse experiment, post-emergence treatment; assay type: in vivo, Setaria viridis; details: post-emergence method, scale from 0 to 100
# Text: as §1, §2, §3, §4, §5, §6
# [8] = tested on: ABUTH; test: greenhouse experiment, post-emergence treatment; assay type: in vivo, Abutilon theophrasti; details: post-emergence method, application rate 1000 g/ha, scale from 0 to 100
# Text: as §1, §2, §3, §4, §5, §6
Structure (SMILES),herbicidal activity against ECHCG ([2]; application rate 1000 g/ha),herbicidal activity against ALOMY ([4]; application rate 1000 g/ha),herbicidal activity against ECHCG ([5]; application rate 1000 g/ha),also measured
"O=C(O)c1nc(C2CC2)ncc1-c1cccc2c1OC(F)(F)O2 [example 2, 2-Cyclopropyl-5-(2,2-difluoro-1,3-benzodioxol-4-yl)pyrimidine-4-carboxylic Acid]",very good (a very good herbicidal activity is given at values of at least 85),very good (a very good herbicidal activity is given at values of at least 85),,herbicidal activity against AMARE ([1]; application rate 1000 g/ha): very good (a very good herbicidal activity is given at values of at least 85); herbicidal activity against APESV ([3]; application rate 1000 g/ha): very good (a very good herbicidal activity is given at values of at least 85)
COC(=O)c1nc(C2CC2)ncc1-c1c(Cl)sc2ccccc12 [example 4],good (A good herbicidal activity is given at values of at least 70),very good (a very good herbicidal activity is given at values of at least 85),,
O=C(O)c1nc(C2CC2)ncc1-c1cccc2c1OCC2 [example 5],good (A good herbicidal activity is given at values of at least 70),,good (A good herbicidal activity is given at values of at least 70),
O=C(O)c1nc(C2CC2)ncc1-c1cccc2c1OCO2 [example 6],very good (a very good herbicidal activity is given at values of at least 85),very good (a very good herbicidal activity is given at values of at least 85),,herbicidal activity against AMARE ([1]; application rate 1000 g/ha): very good (a very good herbicidal activity is given at values of at least 85); herbicidal activity against APESV ([3]; application rate 1000 g/ha): very good (a very good herbicidal activity is given at values of at least 85); herbicidal activity against AMARE [6]: very good (a very good herbicidal activity is given at values of at least 85)
COC(=O)c1nc(C2CC2)ncc1-c1cc2c(cc1Cl)OCO2 [example 9],,,very good (a very good herbicidal activity is given at values of at least 85),
O=C(O)c1nc(C2CC2)ncc1-c1cc2c(cc1Cl)OCO2 [example 10],very good (a very good herbicidal activity is given at values of at least 85),very good (a very good herbicidal activity is given at values of at least 85),good (A good herbicidal activity is given at values of at least 70),herbicidal activity against APESV ([3]; application rate 1000 g/ha): very good (a very good herbicidal activity is given at values of at least 85)
COC(=O)c1nc(C2CC2)ncc1-c1c(Cl)ccc2c1OCO2 [example 11],very good (a very good herbicidal activity is given at values of at least 85),very good (a very good herbicidal activity is given at values of at least 85),,herbicidal activity against AMARE ([1]; application rate 1000 g/ha): good (A good herbicidal activity is given at values of at least 70)
"COC(=O)c1nc(C2CC2)ncc1-c1csc2ccccc12 [example 12, Methyl 5-(benzothiophen-3-yl)-2-cyclopropyl-pyrimidine-4-carboxylate]",,,,herbicidal activity against ECHCG ([2]; application rate 2000 g/ha): very good (a very good herbicidal activity is given at values of at least 85)
O=C(O)c1nc(C2CC2)ncc1-c1csc2ccccc12 [example 13],,,,herbicidal activity against AMARE ([1]; application rate 2000 g/ha): very good (a very good herbicidal activity is given at values of at least 85); herbicidal activity against ECHCG ([2]; application rate 2000 g/ha): very good (a very good herbicidal activity is given at values of at least 85); herbicidal activity against ECHCG ([5]; application rate 2000 g/ha): good (A good herbicidal activity is given at values of at least 70); herbicidal activity against ALOMY ([4]; application rate 2000 g/ha): good (A good herbicidal activity is given at values of at least 70)
COC(=O)c1nc(C2CC2)ncc1-c1coc2ccccc12 [example 15],very good (a very good herbicidal activity is given at values of at least 85),,,herbicidal activity against SETVI ([7]; application rate 1000 g/ha): very good (a very good herbicidal activity is given at values of at least 85)
O=C(O)c1nc(C2CC2)ncc1-c1coc2ccccc12 [example 16],,,,herbicidal activity against ECHCG ([2]; application rate 2000 g/ha): very good (a very good herbicidal activity is given at values of at least 85); herbicidal activity against ECHCG ([5]; application rate 2000 g/ha): good (A good herbicidal activity is given at values of at least 70); herbicidal activity against APESV ([3]; application rate 2000 g/ha): very good (a very good herbicidal activity is given at values of at least 85)
"COC(=O)c1nc(C2CC2)ncc1-c1c(Cl)sc2ccccc12 [example 17, Methyl 5-(2-chlorobenzothiophen-3-yl)-2-cyclopropyl-pyrimidine-4-carboxylate]",,,,herbicidal activity against SETVI ([7]; application rate 2000 g/ha): very good (a very good herbicidal activity is given at values of at least 85)
COC(=O)c1nc(C2CC2)ncc1-c1c(Cl)oc2ccccc12 [example 19],,,,herbicidal activity against ALOMY ([4]; application rate 2000 g/ha): good (A good herbicidal activity is given at values of at least 70)
O=C(O)c1nc(C2CC2)ncc1-c1c(Cl)oc2ccccc12 [example 20],,,,herbicidal activity against APESV ([3]; application rate 2000 g/ha): very good (a very good herbicidal activity is given at values of at least 85)
COC(=O)c1nc(C2CC2)ncc1-c1cc2c(cc1Br)OCO2 [example 24],,very good (a very good herbicidal activity is given at values of at least 85),very good (a very good herbicidal activity is given at values of at least 85),
O=C(O)c1nc(C2CC2)ncc1-c1cc2c(cc1Br)OCO2 [example 25],very good (a very good herbicidal activity is given at values of at least 85),good (A good herbicidal activity is given at values of at least 70),good (A good herbicidal activity is given at values of at least 70),herbicidal activity against ABUTH [8]: good (A good herbicidal activity is given at values of at least 70); herbicidal activity against APESV ([3]; application rate 1000 g/ha): very good (a very good herbicidal activity is given at values of at least 85)
COC(=O)c1nc(C2CC2)ncc1-c1cc2c(cc1I)OCO2 [example 28],very good (a very good herbicidal activity is given at values of at least 85),good (A good herbicidal activity is given at values of at least 70),good (A good herbicidal activity is given at values of at least 70),
O=C(O)c1nc(C2CC2)ncc1-c1cc2c(cc1I)OCO2 [example 29],,,,herbicidal activity against AMARE ([1]; application rate 1000 g/ha): very good (a very good herbicidal activity is given at values of at least 85)
COC(=O)c1nc(C2CC2)ncc1-c1cccc2c1OCCO2 [example 30],,,,herbicidal activity against AMARE ([1]; application rate 1000 g/ha): very good (a very good herbicidal activity is given at values of at least 85)
O=C(O)c1nc(C2CC2)ncc1-c1cccc2c1OCCO2 [example 31],very good (a very good herbicidal activity is given at values of at least 85),,very good (a very good herbicidal activity is given at values of at least 85),herbicidal activity against AMARE ([1]; application rate 1000 g/ha): very good (a very good herbicidal activity is given at values of at least 85); herbicidal activity against APESV ([3]; application rate 1000 g/ha): very good (a very good herbicidal activity is given at values of at least 85)
COC(=O)c1nc(C2CC2)ncc1-c1c(Cl)cc2c(c1F)OCO2 [example 32],very good (a very good herbicidal activity is given at values of at least 85),good (A good herbicidal activity is given at values of at least 70),good (A good herbicidal activity is given at values of at least 70),
O=C(O)c1nc(C2CC2)ncc1-c1c(Cl)cc2c(c1F)OCO2 [example 33],very good (a very good herbicidal activity is given at values of at least 85),good (A good herbicidal activity is given at values of at least 70),very good (a very good herbicidal activity is given at values of at least 85),herbicidal activity against APESV ([3]; application rate 1000 g/ha): very good (a very good herbicidal activity is given at values of at least 85)
COC(=O)c1nc(C2CC2)ncc1-c1c(Cl)cc2c(c1OC)OCO2 [example 35],,,,herbicidal activity against ABUTH [8]: very good (a very good herbicidal activity is given at values of at least 85)
COc1c2c(cc(Cl)c1-c1cnc(C3CC3)nc1C(=O)O)OCO2 [example 36],,very good (a very good herbicidal activity is given at values of at least 85),very good (a very good herbicidal activity is given at values of at least 85),herbicidal activity against APESV ([3]; application rate 1000 g/ha): very good (a very good herbicidal activity is given at values of at least 85)
